Biological target: T1, Autotaxin (Rattus norvegicus, UniProt Q64610)
Test: Inhibition of recombinant rat ATX using LPC 18:1 as substrate after 2 hrs by rapidfire/MS-based analysis
Settings: not given

| SMILES | IC50 [nM] |
| --- | --- |
| O=C(NC[C@@H]1[C@H]2CN(C(=O)OCc3cc(C(F)(F)F)cc(C(F)(F)F)c3)C[C@@H]12)c1ccc2[nH]nnc2c1 [BI 2545] | 3.4 |
| N#Cc1cc(COC(=O)N2C[C@@H]3[C@@H](CNC(=O)N4CCc5c(O)noc5C4)[C@@H]3C2)cc(C(=O)OC(F)(F)F)c1 | 10 |

Biological target: T1, Autotaxin
Test: Inhibition of ATX in rat whole blood using LPA 17:0 as substrate after 1 hr by LC-MS/MS analysis
Settings: not given

| SMILES | IC50 [nM] |
| --- | --- |
| O=C(NC[C@@H]1[C@H]2CN(C(=O)OCc3cc(C(F)(F)F)cc(C(F)(F)F)c3)C[C@@H]12)c1ccc2[nH]nnc2c1 [BI 2545] | 96 |

Tested on: not listed separately
Test: Protein binding in human plasma
Format: ADME, cell-free
Settings: read-out: PPB

| SMILES | fraction unbound |
| --- | --- |
| O=C(NC[C@@H]1[C@H]2CN(C(=O)OCc3cc(C(F)(F)F)cc(C(F)(F)F)c3)C[C@@H]12)c1ccc2[nH]nnc2c1 [BI 2545] | < 0.002 |

Tested on: not listed separately
Test: Protein binding in rat plasma
Format: ADME, cell-free
Settings: read-out: PPB

| SMILES | fraction unbound |
| --- | --- |
| O=C(NC[C@@H]1[C@H]2CN(C(=O)OCc3cc(C(F)(F)F)cc(C(F)(F)F)c3)C[C@@H]12)c1ccc2[nH]nnc2c1 [BI 2545] | < 0.002 |

Tested on: Rattus norvegicus
Test: Dose normalized AUC in Han Wistar rat at 1 mg/kg, iv
Format: ADME, organism-based
Settings: in vivo

| SMILES | AUC/dose [nM·h] |
| --- | --- |
| O=C(NC[C@@H]1[C@H]2CN(C(=O)OCc3cc(C(F)(F)F)cc(C(F)(F)F)c3)C[C@@H]12)c1ccc2[nH]nnc2c1 [BI 2545] | 2320 |

Tested on: Rattus norvegicus
Test: Dose normalized AUC in Han Wistar rat at 10 mg/kg, po
Format: ADME, organism-based
Settings: in vivo

| SMILES | AUC/dose [nM·h] |
| --- | --- |
| O=C(NC[C@@H]1[C@H]2CN(C(=O)OCc3cc(C(F)(F)F)cc(C(F)(F)F)c3)C[C@@H]12)c1ccc2[nH]nnc2c1 [BI 2545] | 675 |

Tested on: Rattus norvegicus
Test: Clearance in Han Wistar rat at 1 mg/kg, iv relative to hepatic blood flow
Format: ADME, organism-based
Settings: in vivo

| SMILES | CL [%] |
| --- | --- |
| O=C(NC[C@@H]1[C@H]2CN(C(=O)OCc3cc(C(F)(F)F)cc(C(F)(F)F)c3)C[C@@H]12)c1ccc2[nH]nnc2c1 [BI 2545] | 10 |

Tested on: not listed separately
Test: Volume of distribution at steady state in Han Wistar rat at 1 mg/kg, iv
Format: ADME, organism-based
Settings: in vivo, read-out: Vdss

| SMILES | Vd [L/kg] |
| --- | --- |
| O=C(NC[C@@H]1[C@H]2CN(C(=O)OCc3cc(C(F)(F)F)cc(C(F)(F)F)c3)C[C@@H]12)c1ccc2[nH]nnc2c1 [BI 2545] | 0.9 |

Tested on: Rattus norvegicus
Test: Dose normalized Cmax in Han Wistar rat at 10 mg/kg, po
Format: ADME, organism-based
Settings: in vivo

| SMILES | Cmax/dose [nM] |
| --- | --- |
| O=C(NC[C@@H]1[C@H]2CN(C(=O)OCc3cc(C(F)(F)F)cc(C(F)(F)F)c3)C[C@@H]12)c1ccc2[nH]nnc2c1 [BI 2545] | 149 |

Tested on: not listed separately
Test: Tmax in Han Wistar rat at 10 mg/kg, po
Format: ADME, organism-based
Settings: in vivo

| SMILES | Tmax [h] |
| --- | --- |
| O=C(NC[C@@H]1[C@H]2CN(C(=O)OCc3cc(C(F)(F)F)cc(C(F)(F)F)c3)C[C@@H]12)c1ccc2[nH]nnc2c1 [BI 2545] | 1.7 |

Tested on: not listed separately
Test: Half life in Han Wistar rat at 1 mg/kg, iv
Format: ADME, organism-based
Settings: in vivo

| SMILES | half-life [h] |
| --- | --- |
| O=C(NC[C@@H]1[C@H]2CN(C(=O)OCc3cc(C(F)(F)F)cc(C(F)(F)F)c3)C[C@@H]12)c1ccc2[nH]nnc2c1 [BI 2545] | 1.8 |

Tested on: not listed separately
Test: Half life in Han Wistar rat at 10 mg/kg, po
Format: ADME, organism-based
Settings: in vivo

| SMILES | half-life [h] |
| --- | --- |
| O=C(NC[C@@H]1[C@H]2CN(C(=O)OCc3cc(C(F)(F)F)cc(C(F)(F)F)c3)C[C@@H]12)c1ccc2[nH]nnc2c1 [BI 2545] | 3.4 |

Tested on: not listed separately
Test: Oral bioavailability in Han Wistar rat at 10 mg/kg
Format: ADME, organism-based
Settings: in vivo

| SMILES | bioavailability [%] |
| --- | --- |
| O=C(NC[C@@H]1[C@H]2CN(C(=O)OCc3cc(C(F)(F)F)cc(C(F)(F)F)c3)C[C@@H]12)c1ccc2[nH]nnc2c1 [BI 2545] | 30 |

Tested on: Rattus norvegicus
Test: In vivo inhibition of ATX in Han Wistar rat assessed as decrease in plasma LPA 18:0 species level measured up to 24 hrs by LC-MS/MS analysis relative to control
Format: functional
Settings: not given

| SMILES | inhibition (INH) |
| --- | --- |
| O=C(NC[C@@H]1[C@H]2CN(C(=O)OCc3cc(C(F)(F)F)cc(C(F)(F)F)c3)C[C@@H]12)c1ccc2[nH]nnc2c1 [BI 2545] | <=90% |

Tested on: Rattus norvegicus
Test: In vivo inhibition of ATX in Han Wistar rat assessed as decrease in plasma LPA 18:2 species level measured up to 24 hrs by LC-MS/MS analysis relative to control
Format: functional
Settings: not given

| SMILES | inhibition (INH) |
| --- | --- |
| O=C(NC[C@@H]1[C@H]2CN(C(=O)OCc3cc(C(F)(F)F)cc(C(F)(F)F)c3)C[C@@H]12)c1ccc2[nH]nnc2c1 [BI 2545] | <=90% |

Tested on: Rattus norvegicus
Test: In vivo inhibition of ATX in Han Wistar rat assessed as decrease in plasma LPA 16:0 species level measured up to 24 hrs by LC-MS/MS analysis relative to control
Format: functional
Settings: not given

| SMILES | inhibition (INH) |
| --- | --- |
| O=C(NC[C@@H]1[C@H]2CN(C(=O)OCc3cc(C(F)(F)F)cc(C(F)(F)F)c3)C[C@@H]12)c1ccc2[nH]nnc2c1 [BI 2545] | <=90% |

Tested on: Rattus norvegicus
Test: In vivo inhibition of ATX in Han Wistar rat assessed as decrease in plasma LPA 18:1 species level measured up to 24 hrs by LC-MS/MS analysis relative to control
Format: functional
Settings: not given

| SMILES | inhibition (INH) |
| --- | --- |
| O=C(NC[C@@H]1[C@H]2CN(C(=O)OCc3cc(C(F)(F)F)cc(C(F)(F)F)c3)C[C@@H]12)c1ccc2[nH]nnc2c1 [BI 2545] | <=90% |

Tested on: Rattus norvegicus
Test: In vivo inhibition of ATX in Han Wistar rat assessed as decrease in plasma LPA 20:4 species level measured up to 24 hrs by LC-MS/MS analysis relative to control
Format: functional
Settings: not given

| SMILES | inhibition (INH) |
| --- | --- |
| O=C(NC[C@@H]1[C@H]2CN(C(=O)OCc3cc(C(F)(F)F)cc(C(F)(F)F)c3)C[C@@H]12)c1ccc2[nH]nnc2c1 [BI 2545] | <=90% |

Biological target: 5-hydroxytryptamine receptor 2A (Homo sapiens) (UniProt P28223)
Sequence (P28223 whole entry): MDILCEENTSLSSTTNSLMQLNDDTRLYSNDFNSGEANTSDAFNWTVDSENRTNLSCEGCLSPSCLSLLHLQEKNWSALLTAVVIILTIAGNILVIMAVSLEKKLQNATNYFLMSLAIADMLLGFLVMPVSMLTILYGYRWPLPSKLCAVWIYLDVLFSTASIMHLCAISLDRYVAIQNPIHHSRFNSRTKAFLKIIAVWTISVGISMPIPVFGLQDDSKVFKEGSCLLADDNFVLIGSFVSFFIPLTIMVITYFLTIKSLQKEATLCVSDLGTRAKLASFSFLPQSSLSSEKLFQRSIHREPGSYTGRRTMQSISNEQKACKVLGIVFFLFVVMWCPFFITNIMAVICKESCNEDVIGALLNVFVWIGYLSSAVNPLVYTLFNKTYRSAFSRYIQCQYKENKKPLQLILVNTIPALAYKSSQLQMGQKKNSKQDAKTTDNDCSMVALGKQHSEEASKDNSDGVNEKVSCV
Test: Inhibition of recombinant human 5-HT2A receptor at 10 uM after 60 mins by scintillation counting analysis relative to control
Settings: not given

| SMILES | inhibition [%] |
| --- | --- |
| O=C(NC[C@@H]1[C@H]2CN(C(=O)OCc3cc(C(F)(F)F)cc(C(F)(F)F)c3)C[C@@H]12)c1ccc2[nH]nnc2c1 [BI 2545] | 55 |

Biological target: L-type calcium channel (Homo sapiens, UniProt O60840+Q01668+Q13698+Q13936)
Test: Inhibition of L-type calcium channel (unknown origin) at 10 uM relative to control
Format: protein assay
Settings: not given

| SMILES | inhibition at 10 µM [%] |
| --- | --- |
| O=C(NC[C@@H]1[C@H]2CN(C(=O)OCc3cc(C(F)(F)F)cc(C(F)(F)F)c3)C[C@@H]12)c1ccc2[nH]nnc2c1 [BI 2545] | 80 |

Organism: Homo sapiens
Test: Inhibition of sodium channel site 2 (unknown origin) at 10 uM relative to control
Settings: not given

| SMILES | inhibition [%] |
| --- | --- |
| O=C(NC[C@@H]1[C@H]2CN(C(=O)OCc3cc(C(F)(F)F)cc(C(F)(F)F)c3)C[C@@H]12)c1ccc2[nH]nnc2c1 [BI 2545] | 66 |

Biological target: Sodium-dependent noradrenaline transporter (Homo sapiens) (UniProt P23975)
Sequence (P23975 whole entry): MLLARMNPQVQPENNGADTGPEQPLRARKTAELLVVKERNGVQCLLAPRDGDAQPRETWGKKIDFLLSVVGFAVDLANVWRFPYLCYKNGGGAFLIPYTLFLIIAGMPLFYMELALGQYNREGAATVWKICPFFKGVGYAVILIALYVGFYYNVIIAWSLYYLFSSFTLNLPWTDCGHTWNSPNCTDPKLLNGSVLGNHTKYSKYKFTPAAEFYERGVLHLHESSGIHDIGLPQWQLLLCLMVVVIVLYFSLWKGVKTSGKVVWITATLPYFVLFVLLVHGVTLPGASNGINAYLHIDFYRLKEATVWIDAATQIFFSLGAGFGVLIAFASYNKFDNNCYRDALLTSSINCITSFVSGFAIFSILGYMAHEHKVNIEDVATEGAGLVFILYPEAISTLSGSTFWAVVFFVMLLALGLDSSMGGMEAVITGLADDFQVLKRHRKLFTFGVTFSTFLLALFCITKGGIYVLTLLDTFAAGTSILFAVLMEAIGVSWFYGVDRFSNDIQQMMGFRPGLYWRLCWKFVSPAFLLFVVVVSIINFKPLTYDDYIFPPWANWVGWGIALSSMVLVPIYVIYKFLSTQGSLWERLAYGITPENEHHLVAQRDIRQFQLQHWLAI
Test: Inhibition of norepinephrine transporter (unknown origin) at 10 uM relative to control
Settings: not given

| SMILES | inhibition [%] |
| --- | --- |
| O=C(NC[C@@H]1[C@H]2CN(C(=O)OCc3cc(C(F)(F)F)cc(C(F)(F)F)c3)C[C@@H]12)c1ccc2[nH]nnc2c1 [BI 2545] | 61 |

Tested on: Rattus norvegicus
Test: In vivo inhibition of ATX in Han Wistar rat assessed as decrease in plasma LPA species level measured up to 24 hrs by LC-MS/MS analysis
Format: functional, organism-based
Settings: not given

| SMILES | IC50 [nM] |
| --- | --- |
| O=C(NC[C@@H]1[C@H]2CN(C(=O)OCc3cc(C(F)(F)F)cc(C(F)(F)F)c3)C[C@@H]12)c1ccc2[nH]nnc2c1 [BI 2545] | 100 |

Biological target: Voltage-gated inwardly rectifying potassium channel KCNH2 (Homo sapiens, UniProt Q12809)
Sequence (Q12809 whole entry): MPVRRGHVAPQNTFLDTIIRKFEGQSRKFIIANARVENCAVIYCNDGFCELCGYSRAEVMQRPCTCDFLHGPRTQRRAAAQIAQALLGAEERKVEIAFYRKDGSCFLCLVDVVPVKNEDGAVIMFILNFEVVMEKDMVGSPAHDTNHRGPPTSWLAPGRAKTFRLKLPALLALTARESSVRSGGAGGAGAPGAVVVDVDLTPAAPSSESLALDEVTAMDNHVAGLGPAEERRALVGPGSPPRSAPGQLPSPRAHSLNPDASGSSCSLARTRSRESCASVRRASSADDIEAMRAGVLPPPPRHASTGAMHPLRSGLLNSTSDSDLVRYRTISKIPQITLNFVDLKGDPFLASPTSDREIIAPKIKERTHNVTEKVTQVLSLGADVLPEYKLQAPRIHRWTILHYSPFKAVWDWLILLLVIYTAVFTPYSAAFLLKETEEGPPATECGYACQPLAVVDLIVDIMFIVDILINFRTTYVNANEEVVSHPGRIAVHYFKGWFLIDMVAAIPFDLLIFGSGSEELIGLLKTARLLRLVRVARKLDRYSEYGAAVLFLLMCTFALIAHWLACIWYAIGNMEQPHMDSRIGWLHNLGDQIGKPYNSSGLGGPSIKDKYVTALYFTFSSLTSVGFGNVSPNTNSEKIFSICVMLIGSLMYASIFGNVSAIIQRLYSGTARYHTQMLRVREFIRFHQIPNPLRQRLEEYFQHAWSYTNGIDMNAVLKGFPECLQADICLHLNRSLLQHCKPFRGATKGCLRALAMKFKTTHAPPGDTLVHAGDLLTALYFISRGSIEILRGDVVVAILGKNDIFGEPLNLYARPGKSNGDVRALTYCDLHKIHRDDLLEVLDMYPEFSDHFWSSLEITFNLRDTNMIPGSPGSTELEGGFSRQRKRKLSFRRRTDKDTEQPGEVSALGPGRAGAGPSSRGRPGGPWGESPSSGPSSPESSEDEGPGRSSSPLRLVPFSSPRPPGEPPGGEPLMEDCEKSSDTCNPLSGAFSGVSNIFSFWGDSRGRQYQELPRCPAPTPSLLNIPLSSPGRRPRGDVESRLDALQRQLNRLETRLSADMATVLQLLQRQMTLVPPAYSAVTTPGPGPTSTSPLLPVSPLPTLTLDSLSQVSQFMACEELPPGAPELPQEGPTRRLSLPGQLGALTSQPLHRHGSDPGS
Test: not given
Settings: not given

| SMILES | IC50 [nM] |
| --- | --- |
| O=C(NC[C@@H]1[C@H]2CN(C(=O)OCc3cc(C(F)(F)F)cc(C(F)(F)F)c3)C[C@@H]12)c1ccc2[nH]nnc2c1 [BI 2545] | > 10000 |
| N#Cc1cc(COC(=O)N2C[C@@H]3[C@@H](CNC(=O)N4CCc5c(O)noc5C4)[C@@H]3C2)cc(C(=O)OC(F)(F)F)c1 | > 10000 |

Tested on: not listed separately
Test: physchem
Settings: pH 2.2 buffer solution
Description: Aqueous solubility of the compound in pH 2.2 buffer solution after 24 hrs by LC-UV analysis

| SMILES | solubility at 24 h [µg/mL] |
| --- | --- |
| O=C(NC[C@@H]1[C@H]2CN(C(=O)OCc3cc(C(F)(F)F)cc(C(F)(F)F)c3)C[C@@H]12)c1ccc2[nH]nnc2c1 [BI 2545] | < 1 |
| N#Cc1cc(COC(=O)N2C[C@@H]3[C@@H](CNC(=O)N4CCc5c(O)noc5C4)[C@@H]3C2)cc(C(=O)OC(F)(F)F)c1 | < 1 |

Tested on: not listed separately
Test: physchem
Settings: pH 4.5 buffer solution
Description: Aqueous solubility of the compound in pH 4.5 buffer solution after 24 hrs by LC-UV analysis

| SMILES | solubility at 24 h [µg/mL] |
| --- | --- |
| O=C(NC[C@@H]1[C@H]2CN(C(=O)OCc3cc(C(F)(F)F)cc(C(F)(F)F)c3)C[C@@H]12)c1ccc2[nH]nnc2c1 [BI 2545] | < 1 |
| N#Cc1cc(COC(=O)N2C[C@@H]3[C@@H](CNC(=O)N4CCc5c(O)noc5C4)[C@@H]3C2)cc(C(=O)OC(F)(F)F)c1 | < 1 |

Tested on: not listed separately
Test: physchem
Settings: pH 6.8 buffer solution
Description: Aqueous solubility of the compound in pH 6.8 buffer solution after 24 hrs by LC-UV analysis

| SMILES | solubility at 24 h [µg/mL] |
| --- | --- |
| O=C(NC[C@@H]1[C@H]2CN(C(=O)OCc3cc(C(F)(F)F)cc(C(F)(F)F)c3)C[C@@H]12)c1ccc2[nH]nnc2c1 [BI 2545] | < 1 |
| N#Cc1cc(COC(=O)N2C[C@@H]3[C@@H](CNC(=O)N4CCc5c(O)noc5C4)[C@@H]3C2)cc(C(=O)OC(F)(F)F)c1 | > 113 |

Tested on: not listed separately
Test: in vitro
Settings: human, liver microsomes
Description: Clearance in human liver microsomes at 1 uM in presence of NADPH by LC-MS/MS analysis relative to hepatic blood flow

| SMILES | hepatic extraction ratio at 1 µM |
| --- | --- |
| N#Cc1cc(COC(=O)N2C[C@@H]3[C@@H](CNC(=O)N4CCc5c(O)noc5C4)[C@@H]3C2)cc(C(=O)OC(F)(F)F)c1 | < 0.23 |

Tested on: not listed separately
Test: in vitro
Settings: rat, liver microsomes
Description: Clearance in rat liver microsomes at 1 uM in presence of NADPH by LC-MS/MS analysis relative to hepatic blood flow

| SMILES | hepatic extraction ratio at 1 µM |
| --- | --- |
| N#Cc1cc(COC(=O)N2C[C@@H]3[C@@H](CNC(=O)N4CCc5c(O)noc5C4)[C@@H]3C2)cc(C(=O)OC(F)(F)F)c1 | < 0.22 |

Tested on: not listed separately
Test: in vitro
Settings: human, Caco-2
Description: Apparent permeability across apical to basolateral side in human Caco2 cells at 10 uM measured up to 90 mins

| SMILES | Papp A→B at 1.5 h, 10 µM [×10⁻⁶ cm/s] |
| --- | --- |
| O=C(NC[C@@H]1[C@H]2CN(C(=O)OCc3cc(C(F)(F)F)cc(C(F)(F)F)c3)C[C@@H]12)c1ccc2[nH]nnc2c1 [BI 2545] | 9 |
